# Assay: Effect and timing of food on pharmacokinetics of TAK-390 after a single oral dose of TAK-390MR 90 mg (phase 1, 4-way crossover)
# Format: in vivo, human
# Settings: oral 90 mg dose with a high fat meal
# Procedure: The purpose of this study was to evaluate the effect of food on the pharmacokinetics (PK) and pharmacodynamics (PD) of TAK-390 after a single oral dose of TAK-390 MR 90 mg, made as described in Example 1. This study was a phase 1, open-label, randomized, single-dose, 4-way crossover study conducted at a single center. Healthy adult subjects were randomized on Day 1 of Period 1 to 1 of 4 sequence groups that determined the order in which patients received the 4 different dosing regimens (See, Table 4, below). […] There was a minimum washout interval of at least 5 days between the last dose in a period and the first dose in the subsequent period. […] PK parameters for TAK-390 were estimated using standard noncompartmental methods and include: tlag=time delay between drug administration and first observed concentration above the lower limit of quantitation; tmax=time to reach the observed maximum plasma concentration; Cmax=observed maximum plasma concentration; and AUC=area under the plasma concentration vs time curve from time zero the last quantifiable concentration (AUCt) and from time zero to infinity (AUC∞).
structure (smiles),measurement,value
Cc1c(OCC(F)(F)F)ccnc1C[S@@+]([O-])c1nc2ccccc2[nH]1 [dexlansoprazole],increase in AUC∞,approximately 37%
same,increase in Cmax,approximately 37%

# — US8173158B2, “Methods of treating gastrointestinal disorders independent of the intake of food” (Takeda Pharmaceuticals U.S.A., Inc., priority 2007, dated 2012)
